According to ChEMBL document CHEMBL1201862, “PubChem BioAssay data set” (2004):
Calls of active or inactive are those of the source. No stated cut-off is given here; in the data, active = EC50 of 10 µM or less and inactive = more.

Biological target: Peroxisome proliferator-activated receptor gamma/Nuclear receptor coactivator 1 (Homo sapiens, UniProt P37231)
Experiment: TR-FRET dose response biochemical High Throughput Screening assay for agonists of the steroid receptor coactivator 1 (SRC-1) recruitment by the peroxisome proliferator-activated receptor gamma (PPAR gamma): non-selective agonists. [Related pubchem assays (depositor defined):AID1300, AID1808, AID504735, AID631]
Format: protein assay

Peroxisome proliferator-activated receptor gamma/Nuclear receptor coactivator 1, sequence (P37231 whole entry): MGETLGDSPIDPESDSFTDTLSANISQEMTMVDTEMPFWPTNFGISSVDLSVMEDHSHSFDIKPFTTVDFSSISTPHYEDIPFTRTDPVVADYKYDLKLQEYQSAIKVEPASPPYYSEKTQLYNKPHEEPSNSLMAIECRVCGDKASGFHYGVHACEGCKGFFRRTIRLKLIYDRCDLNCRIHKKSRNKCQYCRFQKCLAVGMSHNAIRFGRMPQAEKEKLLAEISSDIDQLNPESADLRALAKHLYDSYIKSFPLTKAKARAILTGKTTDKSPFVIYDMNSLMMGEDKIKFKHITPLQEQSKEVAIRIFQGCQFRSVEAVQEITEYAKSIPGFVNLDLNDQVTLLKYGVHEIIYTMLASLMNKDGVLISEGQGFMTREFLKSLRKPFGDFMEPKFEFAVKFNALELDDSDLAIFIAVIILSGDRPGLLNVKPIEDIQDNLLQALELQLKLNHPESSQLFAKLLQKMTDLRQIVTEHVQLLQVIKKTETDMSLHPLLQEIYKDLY
Peroxisome proliferator-activated receptor gamma/Nuclear receptor coactivator 1, sequence (Q15788 whole entry, further chain): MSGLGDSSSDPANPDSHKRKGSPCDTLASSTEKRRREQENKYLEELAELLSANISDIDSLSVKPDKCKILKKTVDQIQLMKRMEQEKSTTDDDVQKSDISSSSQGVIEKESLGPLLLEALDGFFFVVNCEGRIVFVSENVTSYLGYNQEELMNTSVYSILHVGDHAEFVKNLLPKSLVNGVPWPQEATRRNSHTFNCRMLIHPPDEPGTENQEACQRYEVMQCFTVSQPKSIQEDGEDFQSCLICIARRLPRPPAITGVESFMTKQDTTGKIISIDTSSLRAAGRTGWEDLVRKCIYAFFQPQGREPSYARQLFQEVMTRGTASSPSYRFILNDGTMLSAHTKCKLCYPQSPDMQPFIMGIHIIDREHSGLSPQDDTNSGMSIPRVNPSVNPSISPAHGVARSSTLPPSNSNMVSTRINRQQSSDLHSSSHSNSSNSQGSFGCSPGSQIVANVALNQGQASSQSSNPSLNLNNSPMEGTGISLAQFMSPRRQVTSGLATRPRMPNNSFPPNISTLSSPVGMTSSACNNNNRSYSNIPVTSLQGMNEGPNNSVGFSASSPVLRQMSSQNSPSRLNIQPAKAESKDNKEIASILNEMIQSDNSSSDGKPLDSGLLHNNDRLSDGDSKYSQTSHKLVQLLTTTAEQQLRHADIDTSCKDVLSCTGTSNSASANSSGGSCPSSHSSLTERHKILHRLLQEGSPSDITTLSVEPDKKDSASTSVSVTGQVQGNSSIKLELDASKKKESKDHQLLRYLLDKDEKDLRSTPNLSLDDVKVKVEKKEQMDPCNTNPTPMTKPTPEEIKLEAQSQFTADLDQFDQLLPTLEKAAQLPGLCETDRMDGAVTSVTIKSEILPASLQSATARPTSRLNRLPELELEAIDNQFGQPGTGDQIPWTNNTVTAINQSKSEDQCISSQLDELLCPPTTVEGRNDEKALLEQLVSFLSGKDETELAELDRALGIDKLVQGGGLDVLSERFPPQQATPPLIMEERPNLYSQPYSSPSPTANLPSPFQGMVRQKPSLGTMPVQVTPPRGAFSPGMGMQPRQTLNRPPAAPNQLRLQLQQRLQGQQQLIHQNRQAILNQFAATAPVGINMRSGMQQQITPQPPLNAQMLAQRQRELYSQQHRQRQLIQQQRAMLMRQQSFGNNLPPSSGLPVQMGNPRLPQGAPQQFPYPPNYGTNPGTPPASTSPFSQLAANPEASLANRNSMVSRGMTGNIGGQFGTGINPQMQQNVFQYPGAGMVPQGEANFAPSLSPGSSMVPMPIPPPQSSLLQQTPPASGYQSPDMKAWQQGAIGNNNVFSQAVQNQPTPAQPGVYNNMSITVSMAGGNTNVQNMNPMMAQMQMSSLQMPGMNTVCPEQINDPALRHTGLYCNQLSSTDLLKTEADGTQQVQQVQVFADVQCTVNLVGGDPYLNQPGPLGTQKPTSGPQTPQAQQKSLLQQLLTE

Compound: Nc1ccc2c(c1)C(=O)C(=O)c1ccccc1-2
- EC50: 12.3 µM (inactive)
